Data as given in patent publication US6525045B2, “Positive allosteric AMPA receptor modulators” (Boehringer Ingelheim Pharma KG, priority 2000, dated 2003).

Tested on: AMPA receptors
Assay: Electrophysiological measurement of intensification of the agonist-induced current on cells expressing functional AMPA receptors
Type: cell-based
Set-up: key: + good; ++ very good activity
Settings: concentrations between 0.3 μmol and 300 μmol
Procedure: Particular mention should be made of those applications in which the positive modulation of AMPA receptors plays a part. The effect of the compounds according to the invention as AMPA receptor modulators was measured electrophysiologically on cells which express functional AMPA receptors. Investigations were carried out to see whether the test substances have a positive allosteric influence on the agonist-induced current.
The test was carried out at concentrations of between 0.3 μmol and 300 μmol.

Question: For “6-chloro-4-methyl-4,5-dihydro-1.3-dithia-4-aza-acenaphthylene 3.3-dioxide [Example 5]”, which “Effectiveness: Intensification of the agonist-induced current” value (“Effectiveness: Intensification” for short) is on record?
Answer: +

Question: Which “Effectiveness: Intensification” value does the source give for `CN1Cc2cccc3scc(c23)S1(=O)=O` [Example 1, 4-methyl-4,5-dihydro-1,3-dithia-4-aza-acenaphthylene 3,3-dioxide] here?
Answer: ++

Question: Which “Effectiveness: Intensification” value does the source give for `CCN1Cc2cccc3scc(c23)S1(=O)=O` [Example 2, 4-ethyl-4.5-dihydro-1,3-dithia-4-aza-acenaphthylene 3,3-dioxide] here?
Answer: +

Question: For `CN1Cc2ccc(Cl)c3scc(c23)S1(=O)=O` [Example 3, 8-chloro-4-methyl-4,5-dihydro-1,3-dithia-4-aza-acenaphthylene 3,3-dioxide], which “Effectiveness: Intensification” value is on record?
Answer: +

Question: With `CN1Cc2c(F)ccc3scc(c23)S1(=O)=O` [Example 4, 6-fluoro-4-methyl-4,5-dihydro-1,3-dithia-4-aza-acenaphthylene 3,3-dioxide] as the molecule, how does the “Effectiveness: Intensification” value read?
Answer: ++

Tested on: not given
Assay: not given
Settings: not given

Question: For `CN1Cc2c(Br)ccc3scc(c23)S1(=O)=O` [Example 11, 6-bromo-4-methyl-4,5-dihydro-1,3-dithia-4-aza-acenaphthylene-3,3-dioxide], which melting point is on record?
Answer: 203 °C

Question: For `CN1Cc2c(C#N)ccc3scc(c23)S1(=O)=O` [Example 16, 4-methyl-3,3-dioxo-4,5-dihydro-3H-1,3-dithia-4-aza-acenaphthylene-6-carbonitrile], which melting point is on record?
Answer: 238 °C
